Experimental data taken from US20250144094A1 (Erasca, Inc., priority 2021, published 2025).

Biological target: Recombinant human ULK1 (1-649) (Homo sapiens (Human), UniProt O75385)
Test: ULK1 ADP Glo kinase activity assay (MBP substrate)
Conditions: 25° C., 40 minutes, read-out: ULK1 biochemical IC50
Procedure, shortened: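 GST-tagged ULK1 (1-649) from Sf9 cells phosphorylated MBP, with ATP, for 40 min at 25 °C across a 12-point series from 10 uM. ADP formed was quantified by ADP-Glo luminescence against DMSO controls. IC50 came from a four-parameter variable-slope fit of log concentration.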

Recombinant human ULK1 (1-649), sequence (O75385 1-649): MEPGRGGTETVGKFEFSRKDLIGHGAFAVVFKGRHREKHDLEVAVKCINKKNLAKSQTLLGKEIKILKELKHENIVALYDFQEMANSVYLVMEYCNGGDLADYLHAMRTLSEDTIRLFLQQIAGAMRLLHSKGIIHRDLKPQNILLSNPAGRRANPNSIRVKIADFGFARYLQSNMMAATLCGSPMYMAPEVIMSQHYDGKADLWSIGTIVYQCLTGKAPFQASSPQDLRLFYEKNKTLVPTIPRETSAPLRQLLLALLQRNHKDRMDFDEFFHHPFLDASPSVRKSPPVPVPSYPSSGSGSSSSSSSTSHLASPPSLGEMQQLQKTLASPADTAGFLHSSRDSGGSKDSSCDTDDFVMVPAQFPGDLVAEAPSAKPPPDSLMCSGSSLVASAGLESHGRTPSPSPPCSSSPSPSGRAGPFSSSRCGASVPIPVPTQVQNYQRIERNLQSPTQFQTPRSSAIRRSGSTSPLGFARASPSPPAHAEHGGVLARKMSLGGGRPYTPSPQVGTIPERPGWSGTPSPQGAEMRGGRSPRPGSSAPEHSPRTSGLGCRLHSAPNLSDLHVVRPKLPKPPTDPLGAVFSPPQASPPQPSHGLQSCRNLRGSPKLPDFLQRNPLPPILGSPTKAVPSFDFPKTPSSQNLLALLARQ

Row | SMILES | IC50
1 | CN1Cc2cc(Nc3ncc(C(F)(F)F)c(-c4cc(S(C)(=O)=O)cs4)n3)c(C3CC3)cc2C1 [Example 88, 6-cyclopropyl-N-[4-(4-methanesulfonylthiophen-2-yl)-5-(trifluoromethyl)pyrimidin-2-yl]-2-methyl-2,3-dihydro-1H-isoindol-5-amine] | ≤ 10 nM
2 | CS(=O)(=O)c1csc(-c2nc(Nc3cc4c(cc3Cl)CNCC4)ncc2C2CC2)c1 [Example 89, 7-chloro-N-(5-cyclopropyl-4-(4-(methylsulfonyl)thiophen-2-yl)pyrimidin-2-yl)-1,2,3,4-tetrahydroisoquinolin-6-amine] | 10 to 50 nM
3 | CS(=O)(=O)c1cc(-c2nc(Nc3cc4c(cc3Cl)CNCC4)ncc2C(F)(F)F)sc1N1CCS(=O)(=O)CC1 [Example 90, 4-(5-(2-((7-chloro-1,2,3,4-tetrahydroisoquinolin-6-yl)amino)-5-(trifluoromethyl)pyrimidin-4-yl)-3-(methylsulfonyl)thiophen-2-yl)thiomorpholine 1,1-dioxide] | ≤ 10 nM
4 | CS(=O)(=O)c1csc(-c2nc(Nc3cc4c(cc3F)CNCC4)ncc2C(F)(F)F)c1 [Example 91, 7-fluoro-N-(4-(4-(methylsulfonyl)thiophen-2-yl)-5-(trifluoromethyl)pyrimidin-2-yl)-1,2,3,4-tetrahydroisoquinolin-6-amine] | ≤ 10 nM
5 | Cc1cc2c(cc1Nc1ncc(C(F)(F)F)c(-c3cc(S(C)(=O)=O)cs3)n1)CN(C)C2 [Example 92, 2,6-dimethyl-N-(4-(4-(methylsulfonyl)thiophen-2-yl)-5-(trifluoromethyl)pyrimidin-2-yl)isoindolin-5-amine] | ≤ 10 nM
6 | CS(=O)(=O)c1csc(-c2nc(Nc3cc4c(cc3Cl)CNCC4)ncc2Cl)c1 [Example 93, 7-chloro-N-(5-chloro-4-(4-(methylsulfonyl)thiophen-2-yl)pyrimidin-2-yl)-1,2,3,4-tetrahydroisoquinolin-6-amine] | ≤ 10 nM
7 | Cc1cnc(Nc2cc3c(cc2Cl)CNCC3)nc1-c1cc(S(C)(=O)=O)cs1 [Example 94, 7-chloro-N-(5-methyl-4-(4-(methylsulfonyl)thiophen-2-yl)pyrimidin-2-yl)-1,2,3,4-tetrahydroisoquinolin-6-amine] | ≤ 10 nM
8 | CN1CCc2cc(Nc3ncc(C(F)(F)F)c(-c4cc(S(C)(=O)=O)cs4)n3)c(Cl)cc2C1 [Example 95, 7-chloro-2-methyl-N-(4-(4-(methylsulfonyl)thiophen-2-yl)-5-(trifluoromethyl)pyrimidin-2-yl)-1,2,3,4-tetrahydroisoquinolin-6-amine] | ≤ 10 nM
9 | COCc1sc(-c2nc(Nc3cc4c(cc3Cl)CNCC4)ncc2C(F)(F)F)cc1S(C)(=O)=O [Example 96, 7-chloro-N-(4-(5-(methoxymethyl)-4-(methylsulfonyl)thiophen-2-yl)-5-(trifluoromethyl)pyrimidin-2-yl)-1,2,3,4-tetrahydroisoquinolin-6-amine] | 10 to 50 nM
10 | CS(=O)(=O)c1cc(-c2nc(Nc3cc4c(cc3Cl)CNCC4)ncc2C(F)(F)F)sc1C1CCOCC1 [Example 97, 7-chloro-N-(4-(4-(methylsulfonyl)-5-(tetrahydro-2H-pyran-4-yl)thiophen-2-yl)-5-(trifluoromethyl)pyrimidin-2-yl)-1,2,3,4-tetrahydroisoquinolin-6-amine] | ≤ 10 nM
11 | CN1CCc2cc(Nc3ncc(C(F)(F)F)c(-c4cc(S(C)(=O)=O)cs4)n3)c(F)cc2C1 [Example 98, 7-fluoro-2-methyl-N-(4-(4-(methylsulfonyl)thiophen-2-yl)-5-(trifluoromethyl)pyrimidin-2-yl)-1,2,3,4-tetrahydroisoquinolin-6-amine] | ≤ 10 nM
12 | CS(=O)(=O)c1csc(-c2nc(Nc3cc4c(cc3Cl)CCNC4)ncc2C(F)(F)F)c1 [Example 99, 6-chloro-N-(4-(4-(methylsulfonyl)thiophen-2-yl)-5-(trifluoromethyl)pyrimidin-2-yl)-1,2,3,4-tetrahydroisoquinolin-7-amine] | ≤ 10 nM
13 | CN1CCc2cc(Cl)c(Nc3ncc(C(F)(F)F)c(-c4cc(S(C)(=O)=O)cs4)n3)cc2C1 [Example 100, 6-chloro-2-methyl-N-(4-(4-(methylsulfonyl)thiophen-2-yl)-5-(trifluoromethyl)pyrimidin-2-yl)-1,2,3,4-tetrahydroisoquinolin-7-amine] | ≤ 10 nM
14 | CS(=O)(=O)c1csc(-c2nc(Nc3ccc4c(c3)CNCC4)ncc2C(F)(F)F)c1 [Example 101, N-[4-(4-methanesulfonylthiophen-2-yl)-5-(trifluoromethyl)pyrimidin-2-yl]-1,2,3,4-tetrahydroisoquinolin-7-amine] | ≤ 10 nM
15 | CN1CCc2ccc(Nc3ncc(C(F)(F)F)c(-c4cc(S(C)(=O)=O)cs4)n3)cc2C1 [Example 102, N-[4-(4-methanesulfonylthiophen-2-yl)-5-(trifluoromethyl)pyrimidin-2-yl]-2-methyl-1,2,3,4-tetrahydroisoquinolin-7-amine] | ≤ 10 nM
16 | CN1CCN(c2ccc(Nc3ncc(C(F)(F)F)c(-c4cc(S(C)(=O)=O)cs4)n3)cc2)CC1 [Example 103, N-(4-(4-methylpiperazin-1-yl)phenyl)-4-(4-(methylsulfonyl)thiophen-2-yl)-5-(trifluoromethyl)pyrimidin-2-amine] | ≤ 10 nM
17 | CS(=O)(=O)c1cc(-c2nc(Nc3cc4c(cc3Cl)CNCC4)ncc2C(F)(F)F)sc1C1CCS(=O)(=O)CC1 [Example 104, 4-(5-(2-((7-chloro-1,2,3,4-tetrahydroisoquinolin-6-yl)amino)-5-(trifluoromethyl)pyrimidin-4-yl)-3-(methylsulfonyl)thiophen-2-yl)tetrahydro-2H-thiopyran 1,1-dioxide] | ≤ 10 nM
18 | CS(=O)(=O)c1csc(-c2nc(Nc3ccc4c(c3)CCNC4)ncc2C(F)(F)F)c1 [Example 105, N-(4-(4-(methylsulfonyl)thiophen-2-yl)-5-(trifluoromethyl)pyrimidin-2-yl)-1,2,3,4-tetrahydroisoquinolin-6-amine] | ≤ 10 nM
19 | CS(=O)(=O)c1csc(-c2nc(Nc3cc4c(cc3Cl)CN(C3CC3)CC4)ncc2C(F)(F)F)c1 [Example 107, 7-chloro-2-cyclopropyl-N-[4-(4-methylsulfonyl-2-thienyl)-5-(trifluoromethyl)pyrimidin-2-yl]-3,4-dihydro-1H-isoquinolin-6-amine] | 10 to 50 nM
20 | CS(=O)(=O)c1csc(-c2nc(Nc3cc4c(cc3Cl)CN(CC(F)(F)F)CC4)ncc2C(F)(F)F)c1 [Example 108, 7-chloro-N-[4-(4-methylsulfonyl-2-thienyl)-5-(trifluoromethyl)pyrimidin-2-yl]-2-(2,2,2-trifluoroethyl)-3,4-dihydro-1H-isoquinolin-6-amine] | 100 to 500 nM
21 | CN1CCc2cc(Nc3ncc(C(F)(F)F)c(-c4cc5c(s4)CN(C)CCS5(=O)=O)n3)c(Cl)cc2C1 [Example 109, 7-chloro-2-methyl-N-[4-(4-methyl-1,1-dioxo-3,5-dihydro-2H-thieno[2,3-f][1,4]thiazepin-7-yl)-5-(trifluoromethyl)pyrimidin-2-yl]-3,4-dihydro-1H-isoquinolin-6-amine] | ≤ 10 nM
22 | CS(=O)(=O)c1csc(-c2nc(Nc3cc4c(cc3F)CCNC4)ncc2C(F)(F)F)c1 [Example 110, 6-fluoro-N-[4-(4-methylsulfonyl-2-thienyl)-5-(trifluoromethyl)pyrimidin-2-yl]-1,2,3,4-tetrahydroisoquinolin-7-amine] | ≤ 10 nM
23 | CN1CCc2cc(F)c(Nc3ncc(C(F)(F)F)c(-c4cc(S(C)(=O)=O)cs4)n3)cc2C1 [Example 111, 6-fluoro-2-methyl-N-[4-(4-methylsulfonyl-2-thienyl)-5-(trifluoromethyl)pyrimidin-2-yl]-3,4-dihydro-1H-isoquinolin-7-amine] | ≤ 10 nM
24 | CS(=O)(=O)c1csc(-c2nc(Nc3cc4c(cc3Cl)CN(C3CC3)C4)ncc2C(F)(F)F)c1 [Example 113, 6-chloro-2-cyclopropyl-N-[4-(4-methylsulfonyl-2-thienyl)-5-(trifluoromethyl)pyrimidin-2-yl]isoindolin-5-amine] | 10 to 50 nM
25 | CS(=O)(=O)c1csc(-c2nc(Nc3cc4c(cc3F)CN(C3CC3)C4)ncc2C(F)(F)F)c1 [Example 114, 2-cyclopropyl-6-fluoro-N-[4-(4-methylsulfonyl-2-thienyl)-5-(trifluoromethyl)pyrimidin-2-yl]isoindolin-5-amine] | 10 to 50 nM
26 | CN1CCc2cc(Nc3ncc(C(F)(F)F)c(-c4cc(S(C)(=O)=O)cs4)n3)c(C3CC3)cc2C1 [Example 115, 7-cyclopropyl-2-methyl-N-[4-(4-methylsulfonyl-2-thienyl)-5-(trifluoromethyl)pyrimidin-2-yl]-3,4-dihydro-1H-isoquinolin-6-amine] | ≤ 10 nM
27 | CN1CCc2cc(Nc3ncc(C(F)(F)F)c(-c4cc5c(s4)C(=O)N(C)CCS5(=O)=O)n3)c(Cl)cc2C1 [Example 116, 7-[2-[(7-chloro-2-methyl-3,4-dihydro-1H-isoquinolin-6-yl)amino]-5-(trifluoromethyl)pyrimidin-4-yl]-4-methyl-1,1-dioxo-2,3-dihydrothieno[2,3-f][1,4]thiazepin-5-one] | ≤ 10 nM
28 | O=S1(=O)CCNCc2sc(-c3nc(Nc4cc5c(cc4Cl)CN(C4CC4)CC5)ncc3C(F)(F)F)cc21 [Example 117, 7-chloro-2-cyclopropyl-N-[4-(1,1-dioxo-2,3,4,5-tetrahydrothieno[2,3-f][1,4]thiazepin-7-yl)-5-(trifluoromethyl)pyrimidin-2-yl]-3,4-dihydro-1H-isoquinolin-6-amine] | ≤ 10 nM
29 | CS(=O)(=O)c1csc(-c2nc(Nc3cc4c(cc3F)CN(C3CC3)CC4)ncc2C(F)(F)F)c1 [Example 118, 2-cyclopropyl-7-fluoro-N-[4-(4-methylsulfonyl-2-thienyl)-5-(trifluoromethyl)pyrimidin-2-yl]-3,4-dihydro-1H-isoquinolin-6-amine] | 10 to 50 nM
30 | Cc1nn(C2CCN(C)CC2)cc1Nc1ncc(C(F)(F)F)c(-c2cc(S(C)(=O)=O)cs2)n1 [Example 119, N-[3-methyl-1-(1-methyl-4-piperidyl)pyrazol-4-yl]-4-(4-methylsulfonyl-2-thienyl)-5-(trifluoromethyl)pyrimidin-2-amine] | ≤ 10 nM
